The values that follow come from patent publication US20220274973A1, “Methods And Compositions For Treating Sickle Cell Disease With A Ferroportin Inhibitor (VIT-2763)” (Vifor (International) AG, priority 2019, published 2022).

This series in a line: Rodent PK studies, oral dosing. The series is classed as in vivo.

As for `O=C(NCc1ncccc1F)c1coc(CCNCCc2nc3ccccc3[nH]2)n1` [Compound 127], the systemic availability entry is “systemically available”.
